Results from ChEMBL document CHEMBL3885861, “Open TG-GATES”.

Species on record: Rattus norvegicus
Assay: Open TG-GATES - Regimen: Single
Assay type: toxicity, organism-based, Sprague-Dawley
Parameters: regimen Single, gender Male, age 6 weeks
Details: in vivo, po, 20 mg/kg, route gavage, dose level Low; for APTT / Bas / Eos / Fbg / Hb / Ht / Lym / MCH / MCHC / MCV / Mono / Neu / PT / Plat / RBC / Ret / WBC: tissue Blood; for KIDNEY_L / KIDNEY_R / KIDNEY_TOTAL: tissue Kidney; for LIVER: tissue Liver; for A/G / ALP / ALT / AST / BUN / CRE / Ca / Cl / DBIL / GLC / IP / K / LDH / Na / PL / RALB / TBIL / TC / TG / TP / gamma-GTP: tissue Plasma

Question: With CC(CN1c2ccccc2Sc2ccccc21)N(C)C (configuration not stated) [PROMETHAZINE] as the molecule, how does the TERMINAL_BW (3 h) read?
Answer: 208 g

Question: And the APTT (3 h)?
Answer: 23.7 s

Question: And the Bas (3 h)?
Answer: 0%

Question: What about the Eos (3 h) of the same molecule?
Answer: 0.6%

Question: And the Fbg (3 h)?
Answer: 325.8 mg/dL

Question: And the Hb (3 h)?
Answer: 13.5 g/dL

Question: What about the Ht (3 h) of the same molecule?
Answer: 41.2%

Question: What about the Lym (3 h) of the same molecule?
Answer: 81.4%

Question: And the MCH (3 h)?
Answer: 20.7 pg

Question: And the MCHC (3 h)?
Answer: 32.7%

Question: And the MCV (3 h)?
Answer: 63.3 fL

Question: And the Mono (3 h)?
Answer: 2.2%

Question: And the Neu (3 h)?
Answer: 15.4%

Question: What about the PT (3 h) of the same molecule?
Answer: 16.4 s

Question: What about the Plat (3 h) of the same molecule?
Answer: 114.7 x10_4/uL

Question: And the RBC (3 h)?
Answer: 651.2 x10_4/ul

Question: And the Ret (3 h)?
Answer: 8.2%

Question: What about the WBC (3 h) of the same molecule?
Answer: 78 x10_2/uL

Question: And the KIDNEY_L (3 h)?
Answer: 0.9 g

Question: What about the KIDNEY_R (3 h) of the same molecule?
Answer: 0.9 g

Question: And the KIDNEY_TOTAL (3 h)?
Answer: 1.8 g

Question: What about the LIVER (3 h) of the same molecule?
Answer: 9.2 g

Question: And the A/G (3 h)?
Answer: 1.2

Question: What about the ALP (3 h) of the same molecule?
Answer: 1475 IU/L

Question: What about the ALT (3 h) of the same molecule?
Answer: 53.2 IU/L

Question: And the AST (3 h)?
Answer: 73.6 IU/L

Question: What about the BUN (3 h) of the same molecule?
Answer: 10.6 mg/dL

Question: And the CRE (3 h)?
Answer: 0.2 mg/dL

Question: And the Ca (3 h)?
Answer: 10.5 mg/dL

Question: What about the Cl (3 h) of the same molecule?
Answer: 105.8 meq/L

Question: What about the DBIL (3 h) of the same molecule?
Answer: 0.018 mg/dL

Question: And the GLC (3 h)?
Answer: 177.8 mg/dL

Question: And the IP (3 h)?
Answer: 9.1 mg/dL

Question: And the K (3 h)?
Answer: 4.3 meq/L

Question: And the LDH (3 h)?
Answer: 202.2 IU/L

Question: And the Na (3 h)?
Answer: 142.4 meq/L

Question: What about the PL (3 h) of the same molecule?
Answer: 140.2 mg/dL

Question: And the RALB (3 h)?
Answer: 2.9 g/dL

Question: And the TBIL (3 h)?
Answer: 0.02 mg/dL

Question: What about the TC (3 h) of the same molecule?
Answer: 82 mg/dL

Question: What about the TG (3 h) of the same molecule?
Answer: 60.4 mg/dL

Question: What about the TP (3 h) of the same molecule?
Answer: 5.4 g/dL

Question: What about the gamma-GTP (3 h) of the same molecule?
Answer: 1.2 IU/L

Question: And the TERMINAL_BW (6 h)?
Answer: 211.9 g

Question: And the APTT (6 h)?
Answer: 22.9 s

Question: What about the Bas (6 h) of the same molecule?
Answer: 0%

Question: And the Eos (6 h)?
Answer: 0.6%

Question: What about the Fbg (6 h) of the same molecule?
Answer: 315 mg/dL

Question: What about the Hb (6 h) of the same molecule?
Answer: 13.2 g/dL

Question: And the Ht (6 h)?
Answer: 40%

Question: What about the Lym (6 h) of the same molecule?
Answer: 83.4%

Question: What about the MCH (6 h) of the same molecule?
Answer: 20.5 pg

Question: And the MCHC (6 h)?
Answer: 33.1%

Question: And the MCV (6 h)?
Answer: 62.1 fL

Question: And the Mono (6 h)?
Answer: 2.2%

Question: And the Neu (6 h)?
Answer: 13.2%

Question: And the PT (6 h)?
Answer: 16.9 s

Question: What about the Plat (6 h) of the same molecule?
Answer: 118.2 x10_4/uL

Question: What about the RBC (6 h) of the same molecule?
Answer: 644.8 x10_4/ul

Question: And the Ret (6 h)?
Answer: 7.8%

Question: What about the WBC (6 h) of the same molecule?
Answer: 108.7 x10_2/uL

Question: What about the KIDNEY_L (6 h) of the same molecule?
Answer: 0.9 g

Question: And the KIDNEY_R (6 h)?
Answer: 1 g

Question: What about the KIDNEY_TOTAL (6 h) of the same molecule?
Answer: 1.9 g

Question: What about the LIVER (6 h) of the same molecule?
Answer: 9 g

Question: What about the A/G (6 h) of the same molecule?
Answer: 1.3

Question: What about the ALP (6 h) of the same molecule?
Answer: 1313.4 IU/L

Question: What about the ALT (6 h) of the same molecule?
Answer: 41.2 IU/L

Question: And the AST (6 h)?
Answer: 72.2 IU/L

Question: And the BUN (6 h)?
Answer: 10.4 mg/dL

Question: What about the CRE (6 h) of the same molecule?
Answer: 0.2 mg/dL

Question: And the Ca (6 h)?
Answer: 10.9 mg/dL

Question: And the Cl (6 h)?
Answer: 105.4 meq/L

Question: And the DBIL (6 h)?
Answer: 0.014 mg/dL

Question: What about the GLC (6 h) of the same molecule?
Answer: 178.8 mg/dL

Question: And the IP (6 h)?
Answer: 9.7 mg/dL

Question: And the K (6 h)?
Answer: 4.3 meq/L

Question: What about the LDH (6 h) of the same molecule?
Answer: 161 IU/L

Question: And the Na (6 h)?
Answer: 141.4 meq/L

Question: And the PL (6 h)?
Answer: 131.2 mg/dL

Question: And the RALB (6 h)?
Answer: 3.1 g/dL

Question: What about the TBIL (6 h) of the same molecule?
Answer: 0.03 mg/dL

Question: What about the TC (6 h) of the same molecule?
Answer: 76.2 mg/dL

Question: And the TG (6 h)?
Answer: 69.8 mg/dL

Question: And the TP (6 h)?
Answer: 5.5 g/dL

Question: And the gamma-GTP (6 h)?
Answer: 1.2 IU/L

Question: And the TERMINAL_BW (9 h)?
Answer: 213 g

Question: What about the APTT (9 h) of the same molecule?
Answer: 22.5 s

Question: And the Bas (9 h)?
Answer: 0%

Question: And the Eos (9 h)?
Answer: 0.4%

Question: And the Fbg (9 h)?
Answer: 311.4 mg/dL

Question: And the Hb (9 h)?
Answer: 13 g/dL

Question: What about the Ht (9 h) of the same molecule?
Answer: 39.2%

Question: And the Lym (9 h)?
Answer: 77.8%

Question: And the MCH (9 h)?
Answer: 20.2 pg

Question: And the MCHC (9 h)?
Answer: 33%

Question: What about the MCV (9 h) of the same molecule?
Answer: 61.3 fL

Question: What about the Mono (9 h) of the same molecule?
Answer: 2%

Question: And the Neu (9 h)?
Answer: 18.6%

Question: And the PT (9 h)?
Answer: 16.8 s

Question: What about the Plat (9 h) of the same molecule?
Answer: 119.8 x10_4/uL

Question: And the RBC (9 h)?
Answer: 639.8 x10_4/ul

Question: And the Ret (9 h)?
Answer: 7.2%

Question: And the WBC (9 h)?
Answer: 108 x10_2/uL

Question: What about the KIDNEY_L (9 h) of the same molecule?
Answer: 1 g

Question: And the KIDNEY_R (9 h)?
Answer: 1 g

Question: What about the KIDNEY_TOTAL (9 h) of the same molecule?
Answer: 1.9 g

Question: What about the LIVER (9 h) of the same molecule?
Answer: 8.6 g

Question: What about the A/G (9 h) of the same molecule?
Answer: 1.2

Question: What about the ALP (9 h) of the same molecule?
Answer: 1421.2 IU/L

Question: What about the ALT (9 h) of the same molecule?
Answer: 43.4 IU/L

Question: What about the AST (9 h) of the same molecule?
Answer: 69 IU/L

Question: What about the BUN (9 h) of the same molecule?
Answer: 11.4 mg/dL

Question: And the CRE (9 h)?
Answer: 0.2 mg/dL

Question: What about the Ca (9 h) of the same molecule?
Answer: 10.9 mg/dL

Question: What about the Cl (9 h) of the same molecule?
Answer: 105 meq/L

Question: What about the DBIL (9 h) of the same molecule?
Answer: 0.008 mg/dL

Question: And the GLC (9 h)?
Answer: 183.8 mg/dL

Question: What about the IP (9 h) of the same molecule?
Answer: 10.2 mg/dL

Question: What about the K (9 h) of the same molecule?
Answer: 4.3 meq/L

Question: And the LDH (9 h)?
Answer: 152.8 IU/L

Question: What about the Na (9 h) of the same molecule?
Answer: 140.8 meq/L

Question: What about the PL (9 h) of the same molecule?
Answer: 123.2 mg/dL

Question: What about the RALB (9 h) of the same molecule?
Answer: 2.9 g/dL

Question: And the TBIL (9 h)?
Answer: 0.018 mg/dL

Question: What about the TC (9 h) of the same molecule?
Answer: 72.2 mg/dL

Question: And the TG (9 h)?
Answer: 51.4 mg/dL

Question: And the TP (9 h)?
Answer: 5.4 g/dL

Question: What about the gamma-GTP (9 h) of the same molecule?
Answer: 1.4 IU/L

Question: What about the TERMINAL_BW (24 h) of the same molecule?
Answer: 220.8 g

Question: And the APTT (24 h)?
Answer: 22.2 s

Question: And the Bas (24 h)?
Answer: 0%

Question: What about the Eos (24 h) of the same molecule?
Answer: 0.8%

Question: What about the Fbg (24 h) of the same molecule?
Answer: 317.2 mg/dL

Question: And the Hb (24 h)?
Answer: 13.4 g/dL

Question: What about the Ht (24 h) of the same molecule?
Answer: 39.8%

Question: What about the Lym (24 h) of the same molecule?
Answer: 79.8%

Question: And the MCH (24 h)?
Answer: 20.8 pg

Question: And the MCHC (24 h)?
Answer: 33.6%

Question: What about the MCV (24 h) of the same molecule?
Answer: 62 fL

Question: And the Mono (24 h)?
Answer: 2.4%

Question: What about the Neu (24 h) of the same molecule?
Answer: 16.4%

Question: What about the PT (24 h) of the same molecule?
Answer: 16.6 s

Question: What about the Plat (24 h) of the same molecule?
Answer: 117.2 x10_4/uL

Question: What about the RBC (24 h) of the same molecule?
Answer: 643.4 x10_4/ul

Question: And the Ret (24 h)?
Answer: 7.2%

Question: And the WBC (24 h)?
Answer: 125.3 x10_2/uL

Question: What about the KIDNEY_L (24 h) of the same molecule?
Answer: 0.9 g

Question: What about the KIDNEY_R (24 h) of the same molecule?
Answer: 0.9 g

Question: What about the KIDNEY_TOTAL (24 h) of the same molecule?
Answer: 1.9 g

Question: What about the LIVER (24 h) of the same molecule?
Answer: 10.1 g

Question: And the A/G (24 h)?
Answer: 1.3

Question: And the ALP (24 h)?
Answer: 1645.6 IU/L

Question: What about the ALT (24 h) of the same molecule?
Answer: 49.8 IU/L

Question: What about the AST (24 h) of the same molecule?
Answer: 76 IU/L

Question: What about the BUN (24 h) of the same molecule?
Answer: 17.4 mg/dL

Question: What about the CRE (24 h) of the same molecule?
Answer: 0.2 mg/dL

Question: What about the Ca (24 h) of the same molecule?
Answer: 11 mg/dL

Question: What about the Cl (24 h) of the same molecule?
Answer: 106 meq/L

Question: And the DBIL (24 h)?
Answer: 0 mg/dL

Question: What about the GLC (24 h) of the same molecule?
Answer: 188 mg/dL

Question: What about the IP (24 h) of the same molecule?
Answer: 6.8 mg/dL

Question: What about the K (24 h) of the same molecule?
Answer: 4.1 meq/L

Question: What about the LDH (24 h) of the same molecule?
Answer: 154 IU/L

Question: What about the Na (24 h) of the same molecule?
Answer: 142.6 meq/L

Question: What about the PL (24 h) of the same molecule?
Answer: 146.2 mg/dL

Question: What about the RALB (24 h) of the same molecule?
Answer: 3.1 g/dL

Question: And the TBIL (24 h)?
Answer: 0.002 mg/dL

Question: And the TC (24 h)?
Answer: 78.2 mg/dL

Question: And the TG (24 h)?
Answer: 109.2 mg/dL

Question: And the TP (24 h)?
Answer: 5.5 g/dL

Question: And the gamma-GTP (24 h)?
Answer: 1.6 IU/L
